Measurements published in PMC10384011, “m-Terphenylamines, Acting as Selective COX-1 Inhibitors, Block Microglia Inflammatory Response and Exert Neuroprotective Activity” (Molecules, 2023).

How the values were obtained:
BV2 microglia cells [1] = test: ROS production (H2DCFDA) in LPS-treated BV2 microglia; format: cell-based; conditions: 3 μM, LPS 1 μg/mL, 24 h
Source text: Activation of toll-like receptors (TLRs), particularly the TLR4 subtype, is closely associated with the production of reactive oxygen and nitrogen species that contribute to neuronal death in the CNS. In this connection, NADPH oxidase enzymes are the main ones responsible for ROS production induced by NF-κB nuclear translocation. For this reason, we decided to assess the ROS levels of BV2 microglia cells treated with LPS and the effect of our compounds under this toxicity protocol. To this end, the compounds, at different concentrations (3 μM of 3a, 3b, and 3d and 10 μM of 3c) were incubated with 1 μg/mL LPS for 24 h. After this period, ROS production was measured with the fluorescent probe H2DCFDA. Treatment with LPS increased by 1.75-fold the amount of ROS compared with control cells.
(§1) Cultures were seeded into flasks containing supplemented medium and kept at 37 °C in a humidified atmosphere of 5% CO2 and 95% air. For assays, BV-2 cells were subcultured in 48-well plates at a seeding density of 1 × 10^5 cells per well. Cells were treated with LPS (Sigma-Aldrich, Madrid, Spain) for 24 or 48 h before confluence in RPMI with 1% FBS.
To measure cellular ROS, we used the molecular probe 2′,7′-dichlorodihydrofluorescein diacetate (H2DCFDA). Glial cells were loaded with 5 µM H2DCFDA as it was previously described (Parada et al., 2015). Fluorescence was measured in a fluorescence microplate reader (FLUOstar Galaxy; BMG Labtech, Offenburg, Germany). Wavelengths of excitation and emission were 485 and 520 nm, respectively. The relative pixel intensity was measured in identical regions with (ImageJ 1.52a software, National Institutes of Health, Bethesda, MD, USA).

BV2 microglia cells [2] = test: Nitrite release (Griess reaction) in LPS-treated BV2 microglia; format: cell-based; conditions: LPS 1 μg/mL, basal = 100
Source text: The COX-1 inhibition data prompted us to undertake further work on the activity of compounds 3 in a neuroinflammation situation. Once we had verified that the compounds studied were not toxic per se in microglia BV2 cells (see the data in Table S1), we measured the nitrites released to determine the efficacy of our compounds in reducing microglia activation. Nitric oxide is a potent mediator of the classic activated microglia phenotype (M1); in fact, the lack of nitrite release correlated with an anti-inflammatory microglia (M2) phenotype. Therefore, we evaluated the response of the BV2 microglia cells to a challenge of 1 μg/mL LPS. For this purpose, BV2 microglia cells were incubated with LPS, a well-known agonist of the toll-like receptor 4 (TLR4) that causes a neuroinflammatory response, in combination with increasing concentrations of our COX-1 inhibitors (1, 3, and 10 μM). […] Similar results were observed after 48 h of the LPS treatment.
as §1
The NO assay was performed using the previously reported protocols. Briefly, 100 μL of culture supernatants were mixed with the same volume of Griess assay regent (1% sulfanilamide (Sigma Aldrich, Madrid, Spain), 0.1% naphthylethylenediamine dihydrochloride, and 2.5% phosphoric acid). Ten minutes later, the 560-nm absorbance was measured.

human COX-2 = target: T1, human COX-2 (Homo sapiens, UniProt P35354); test: Cyclooxygenase colorimetric inhibitor screening assay, COX-2; format: biochemical; conditions: human COX-2, colorimetric kit; read-out: hCOX-2; IC50;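 also: peroxidase activity of COX-2 followed colorimetrically through formation of oxidized TMPD at 590 nm, with arachidonic acid as substrate, compounds tested from 0.001 to 50 µM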
T1 construct: purchased Cayman Chemicals 701050
T1 sequence (P35354 18-604): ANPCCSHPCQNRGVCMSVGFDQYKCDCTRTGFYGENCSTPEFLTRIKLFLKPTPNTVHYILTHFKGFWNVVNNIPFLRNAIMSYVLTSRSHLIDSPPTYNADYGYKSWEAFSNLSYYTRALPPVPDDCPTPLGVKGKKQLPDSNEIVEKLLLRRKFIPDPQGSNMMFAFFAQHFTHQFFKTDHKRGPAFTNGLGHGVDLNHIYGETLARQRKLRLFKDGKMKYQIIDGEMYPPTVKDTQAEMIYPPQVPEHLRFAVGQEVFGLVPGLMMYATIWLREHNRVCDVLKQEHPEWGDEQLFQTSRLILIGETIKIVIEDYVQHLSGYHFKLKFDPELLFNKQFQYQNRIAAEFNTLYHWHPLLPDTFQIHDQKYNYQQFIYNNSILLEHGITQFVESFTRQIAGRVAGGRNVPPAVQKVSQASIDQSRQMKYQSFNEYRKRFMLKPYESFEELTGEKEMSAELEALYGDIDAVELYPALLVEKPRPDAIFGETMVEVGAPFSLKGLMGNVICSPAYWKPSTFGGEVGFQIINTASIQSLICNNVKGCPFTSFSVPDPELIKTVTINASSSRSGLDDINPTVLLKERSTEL
Procedure: (§2) Newly synthesized compounds were evaluated for their ability to inhibit ovine COX-1 or human COX-2 enzyme by measuring the extent (%) of enzyme activity inhibition at different concentrations (0.001, 0.01, 0.1, 1, 10, 50 μM). […] The assay kit measures the peroxidase component of COXs that is assayed colorimetrically by monitoring the appearance of oxidized N,N,N′,N′-tetramethyl-p-phenylenediamine (TMPD) a λ = 590 nm. […] Stock solutions of test compounds were dissolved in DMSO.

ovine COX-1 = target: T2, ovine COX-1 (Ovis aries, UniProt P05979); test: Cyclooxygenase colorimetric inhibitor screening assay, COX-1; format: biochemical;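 also: COX peroxidase activity read colorimetrically as oxidized TMPD at 590 nm, arachidonic acid as substrate, inhibitors tested at 0.001–50 µM from DMSO stocks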
T2 construct: purchased Cayman Chemicals 701050
T2 sequence (P05979 25-600): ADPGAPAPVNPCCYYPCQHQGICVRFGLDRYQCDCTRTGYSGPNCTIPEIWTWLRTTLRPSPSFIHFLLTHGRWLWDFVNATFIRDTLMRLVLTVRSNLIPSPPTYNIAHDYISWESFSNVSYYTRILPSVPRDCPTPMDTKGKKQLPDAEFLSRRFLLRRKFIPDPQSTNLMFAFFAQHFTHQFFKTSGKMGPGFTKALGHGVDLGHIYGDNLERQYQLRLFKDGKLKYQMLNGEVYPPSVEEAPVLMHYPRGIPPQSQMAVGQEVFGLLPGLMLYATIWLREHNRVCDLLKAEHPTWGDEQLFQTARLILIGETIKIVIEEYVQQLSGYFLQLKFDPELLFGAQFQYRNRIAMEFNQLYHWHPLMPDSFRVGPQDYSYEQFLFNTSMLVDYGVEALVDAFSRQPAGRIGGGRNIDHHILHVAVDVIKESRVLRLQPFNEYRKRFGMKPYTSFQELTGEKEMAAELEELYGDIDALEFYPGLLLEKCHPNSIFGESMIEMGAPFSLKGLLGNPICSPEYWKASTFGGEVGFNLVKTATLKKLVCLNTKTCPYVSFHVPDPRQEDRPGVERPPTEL
Procedure: as §2

IC50 (human COX-2): > 50 µM
inhibition at 50 µM (ovine COX-1; ovine COX-1, 50 µM, read-out: oCOX-1, % Inhibition at 50 µM (converted)): 83%
IC50 (ovine COX-1; ovine COX-1, colorimetric kit, triplicate, read-out: oCOX-1, IC50): 1.1 ± 0.18 µM
COX-1 selectivity (in words) (ovine COX-1; ovine COX-1 vs human COX-2): complete selectivity towards COX-1
SMILES: Cc1ccc(-c2cc(N)cc(-c3ccccc3)c2)cc1 [Compound 3b, 4-Methyl-5′-amino-m-terphenyl]
ROS production induced by LPS (BV2 microglia cells [1]): significantly reverted ROS production almost to basal levels
Nitrite Release after 24 h (BV2 microglia cells [2]; 1 μM): 123 ± 8%
Nitrite Release after 48 h (BV2 microglia cells [2]; 1 μM): 140 ± 14%
Nitrite Release after 24 h (BV2 microglia cells [2]; 3 μM): 100 ± 4 %
Nitrite Release after 48 h (BV2 microglia cells [2]; 3 μM): 123 ± 10 %
Nitrite Release after 24 h (BV2 microglia cells [2]; 10 μM): 105 ± 6 %
Nitrite Release after 48 h (BV2 microglia cells [2]; 10 μM): 128 ± 10 %
